Measurements taken from ChEMBL document CHEMBL5325467, “Discovery of novel hypoxia-activated, nitroimidazole constructed multi-target kinase inhibitors on the basis of AZD9291 for the treatment of human lung cancer” (Bioorg Med Chem, 2023).

Experiments:
[1] = molecular target: Epidermal growth factor receptor (Homo sapiens, UniProt P00533, L858R/T790M); experiment: Inhibition of EGFR L858R/T790M mutant (unknown origin) by mobility shift assay
[2] = Selectivity index, ratio of IC50 for inhibition of wild type EGFR (unknown origin) to IC50 for inhibition of EGFR L858R/T790M mutant (unknown origin)
[3] = molecular target: T1, Epidermal growth factor receptor (Homo sapiens, UniProt P00533); experiment: Inhibition of wild type EGFR (unknown origin) by mobility shift assay
[4] = molecular target: T2, Tyrosine-protein kinase JAK2 (Homo sapiens, UniProt O60674); experiment: Inhibition of JAK2 (unknown origin)
[5] = molecular target: T3, Vascular endothelial growth factor receptor 3 (Homo sapiens, UniProt P35916); experiment: Inhibition of FLT4 (unknown origin)
[6] = molecular target: T4, Proto-oncogene tyrosine-protein kinase ROS (Homo sapiens, UniProt P08922); experiment: Inhibition of ROS1 (unknown origin) at 1 uM relative to control
[7] = molecular target: Tyrosine-protein kinase BTK (Homo sapiens) (UniProt Q06187); experiment: Inhibition of BTK (unknown origin) at 1 uM relative to control
[8] = molecular target: T5, Platelet-derived growth factor receptor alpha (Homo sapiens, UniProt P16234); experiment: Inhibition of PDGFRalpha (unknown origin) at 1 uM relative to control
[9] = (§1) Reductive activation in PBS at pH 7.4 assessed as A14-1 metabolite formation at 1 uM incubated for 30 mins in presence of cysteine, NADPH and nitroreductase under hypoxia condition by MS/MS analysis; format: ADME; settings: buffer, pH 7.4, 0.5 h
[10] = molecular target: Tyrosine-protein kinase JAK3 (Homo sapiens) (UniProt P52333); experiment: Inhibition of JAK3 (unknown origin) at 1 uM relative to control
[11] = molecular target: T1, Epidermal growth factor receptor; experiment: Inhibition of EGFR (unknown origin) at 1 uM relative to control
[12] = molecular target: Hepatocyte growth factor receptor (Homo sapiens) (UniProt P08581); experiment: Inhibition of MET (unknown origin) at 1 uM relative to control
Homo sapiens = species on record: Homo sapiens; experiment: Inhibition of ABL (unknown origin) at 1 uM relative to control
[13] = molecular target: Tyrosine-protein kinase SYK (Homo sapiens) (UniProt P43405); experiment: Inhibition of SYK (unknown origin) at 1 uM relative to control
[14] = molecular target: MAP kinase-activated protein kinase 2 (Homo sapiens) (UniProt P49137); experiment: Inhibition of MAPKAPK2 (unknown origin) at 1 uM relative to control
[15] = molecular target: Focal adhesion kinase 1 (Homo sapiens) (UniProt Q05397); experiment: Inhibition of FAK (unknown origin) at 1 uM relative to control
[16] = molecular target: Fibroblast growth factor receptor 1 (Homo sapiens) (UniProt P11362); experiment: Inhibition of FGFR1 (unknown origin) at 1 uM relative to control
[17] = molecular target: Proto-oncogene tyrosine-protein kinase Src (Homo sapiens) (UniProt P12931); experiment: Inhibition of SRC (unknown origin) at 1 uM relative to control
[18] = Reductive activation in PBS at pH 7.4 assessed as hydroxylamine intermediate formation at 1 uM incubated for 30 mins in presence of cysteine, NADPH and nitroreductase under hypoxia condition by MS/MS analysis; settings: buffer, pH 7.4, 0.5 h
[19] = molecular target: T5, Platelet-derived growth factor receptor alpha; experiment: Inhibition of PDGFRalpha (unknown origin)
[20] = as §1, with “2-amino-3-[2-amino-5-[amino(carboxy)methyl]sulfanyl-1-[2-[2-[2-methoxy-5-[[4-(1-methylindol-3-yl)pyrimidin-2-yl]amino]phenoxy]ethoxy]ethyl]imidazol-4-yl]sulfanyl-propanoic acid” for “A14-1”; format: ADME; settings: buffer, pH 7.4, 0.5 h
[21] = test system: Epidermal growth factor receptor (Homo sapiens), P00533 [L858R,T790M,C797S]; experiment: Inhibition of EGFR L858R/T790M/C797S triple mutant (unknown origin) at 1 uM relative to control
[22] = molecular target: Tyrosine-protein kinase receptor UFO (Homo sapiens) (UniProt P30530); experiment: Inhibition of AXL (unknown origin) at 1 uM relative to control
[23] = (§2) Reductive activation in PBS at pH 7.4 assessed as 2-amino-3-[2-amino-5-[amino(carboxy)methyl]sulfanyl-1-[2-[2-[2-methoxy-5-[[4-(1-methylindol-3-yl)pyrimidin-2-yl]amino]phenoxy]ethoxy]ethyl]imidazol-4-yl]sulfanyl-propanoic acid metabolite formation at 1 uM incubated for 30 mins in presence of cysteine, NADPH and nitroreductase under normoxia condition by MS/MS analysis; format: ADME; settings: buffer, pH 7.4, 0.5 h
[24] = molecular target: T2, Tyrosine-protein kinase JAK2; experiment: Inhibition of JAK2 (unknown origin) at 1 uM relative to control
[25] = Ratio of IC50 for antiproliferative activity against human HCC827 cells harboring EGFR del19 mutant under normoxia condition to IC50 for antiproliferative activity against human HCC827 cells harboring EGFR del19 mutant under hypoxia condition; format: functional
[26] = molecular target: Tyrosine-protein kinase ITK/TSK (Homo sapiens) (UniProt Q08881); experiment: Inhibition of ITK (unknown origin) at 1 uM relative to control
[27] = molecular target: Vascular endothelial growth factor receptor 2 (Homo sapiens) (UniProt P35968); experiment: Inhibition of KDR (unknown origin) at 1 uM relative to control
[28] = Ratio of IC50 for antiproliferative activity against human NCI-H1975 cells harboring EGFR L858R/T790M mutant under normoxia condition to IC50 for antiproliferative activity against human NCI-H1975 cells harboring EGFR L858R/T790M mutant under hypoxia condition; format: functional
[29] = molecular target: Proto-oncogene tyrosine-protein kinase receptor Ret (Homo sapiens) (UniProt P07949); experiment: Inhibition of RET (unknown origin) at 1 uM relative to control
[30] = as §2, with “N2” for “normoxia”; format: ADME; settings: buffer, pH 7.4, 0.5 h
[31] = test system: Serine/threonine-protein kinase B-raf (Homo sapiens), P15056 [V600E]; experiment: Inhibition of BRAF V600E mutant (unknown origin) at 1 uM relative to control
[32] = molecular target: T3, Vascular endothelial growth factor receptor 3; experiment: Inhibition of FLT4 (unknown origin) at 1 uM relative to control
[33] = molecular target: T4, Proto-oncogene tyrosine-protein kinase ROS; experiment: Inhibition of ROS1 (unknown origin)
[34] = molecular target: Cyclin-dependent kinase 4/cyclin D1 (Homo sapiens) (UniProt P11802+P24385); experiment: Inhibition of CDK4/CyclinD1 (unknown origin) at 1 uM relative to control; format: protein-complex assay
[35] = molecular target: Receptor-type tyrosine-protein kinase FLT3 (Homo sapiens) (UniProt P36888); experiment: Inhibition of FLT3 (unknown origin) at 1 uM relative to control
[36] = molecular target: 3-phosphoinositide-dependent protein kinase 1 (Homo sapiens) (UniProt O15530); experiment: Inhibition of PDK1 (unknown origin) at 1 uM relative to control
NCI-H1975 [37] = experiment: Antiproliferative activity against human NCI-H1975 cells harboring EGFR L858R/T790M mutant assessed as inhibition of cell growth incubated for 72 hrs under normoxia condition by SRB assay; format: functional, cell-based; settings: NCI-H1975, 72 h
HCC827 [38] = experiment: Antiproliferative activity against human HCC827 cells harboring EGFR del19 mutant assessed as inhibition of cell growth incubated for 72 hrs under hypoxia condition by SRB assay; format: functional, cell-based; settings: HCC827, 72 h
[39] = molecular target: Mitogen-activated protein kinase 1 (Homo sapiens) (UniProt P28482); experiment: Inhibition of ERK2 (unknown origin) at 1 uM relative to control
[40] = molecular target: RAC-alpha serine/threonine-protein kinase (Homo sapiens) (UniProt P31749); experiment: Inhibition of AKT1 (unknown origin) at 1 uM relative to control
NCI-H1975 [41] = experiment: Antiproliferative activity against human NCI-H1975 cells harboring EGFR L858R/T790M mutant assessed as inhibition of cell growth incubated for 72 hrs under hypoxia condition by SRB assay; format: functional, cell-based; settings: NCI-H1975, 72 h
[42] = Reductive activation in PBS at pH 7.4 assessed as A14-1 metabolite formation at 1 uM incubated for 30 mins in presence of cysteine, NADPH and nitroreductase under N2 condition by MS/MS analysis; format: ADME; settings: buffer, pH 7.4, 0.5 h
[43] = molecular target: ALK tyrosine kinase receptor (Homo sapiens) (UniProt Q9UM73); experiment: Inhibition of ALK (unknown origin) at 1 uM relative to control
HCC827 [44] = experiment: Antiproliferative activity against human HCC827 cells harboring EGFR del19 mutant assessed as inhibition of cell growth incubated for 72 hrs under normoxia condition by SRB assay; format: functional, cell-based; settings: HCC827, 72 h
[45] = molecular target: Receptor tyrosine-protein kinase erbB-2 (Homo sapiens) (UniProt P04626); experiment: Inhibition of HER2 (unknown origin) at 1 uM relative to control
[46] = molecular target: Mast/stem cell growth factor receptor Kit (Homo sapiens) (UniProt P10721); experiment: Inhibition of KIT (unknown origin) at 1 uM relative to control
[47] = molecular target: Mitogen-activated protein kinase 10 (Homo sapiens) (UniProt P53779); experiment: Inhibition of JNK3 (unknown origin) at 1 uM relative to control
[48] = Reductive activation in PBS at pH 7.4 assessed as A14-1 metabolite formation at 1 uM incubated for 30 mins in presence of cysteine, NADPH and nitroreductase under normoxia condition by MS/MS analysis; format: ADME; settings: buffer, pH 7.4, 0.5 h
[49] = molecular target: Receptor-type tyrosine-protein kinase FLT3 (Homo sapiens, UniProt P36888); experiment: Inhibition of FLT3 (unknown origin)
[50] = molecular target: High affinity nerve growth factor receptor (Homo sapiens) (UniProt P04629); experiment: Inhibition of TRKA (unknown origin) at 1 uM relative to control

Epidermal growth factor receptor (Homo sapiens, UniProt P00533, L858R/T790M), sequence (P00533 25-1210 T790M/L858R limits assumed): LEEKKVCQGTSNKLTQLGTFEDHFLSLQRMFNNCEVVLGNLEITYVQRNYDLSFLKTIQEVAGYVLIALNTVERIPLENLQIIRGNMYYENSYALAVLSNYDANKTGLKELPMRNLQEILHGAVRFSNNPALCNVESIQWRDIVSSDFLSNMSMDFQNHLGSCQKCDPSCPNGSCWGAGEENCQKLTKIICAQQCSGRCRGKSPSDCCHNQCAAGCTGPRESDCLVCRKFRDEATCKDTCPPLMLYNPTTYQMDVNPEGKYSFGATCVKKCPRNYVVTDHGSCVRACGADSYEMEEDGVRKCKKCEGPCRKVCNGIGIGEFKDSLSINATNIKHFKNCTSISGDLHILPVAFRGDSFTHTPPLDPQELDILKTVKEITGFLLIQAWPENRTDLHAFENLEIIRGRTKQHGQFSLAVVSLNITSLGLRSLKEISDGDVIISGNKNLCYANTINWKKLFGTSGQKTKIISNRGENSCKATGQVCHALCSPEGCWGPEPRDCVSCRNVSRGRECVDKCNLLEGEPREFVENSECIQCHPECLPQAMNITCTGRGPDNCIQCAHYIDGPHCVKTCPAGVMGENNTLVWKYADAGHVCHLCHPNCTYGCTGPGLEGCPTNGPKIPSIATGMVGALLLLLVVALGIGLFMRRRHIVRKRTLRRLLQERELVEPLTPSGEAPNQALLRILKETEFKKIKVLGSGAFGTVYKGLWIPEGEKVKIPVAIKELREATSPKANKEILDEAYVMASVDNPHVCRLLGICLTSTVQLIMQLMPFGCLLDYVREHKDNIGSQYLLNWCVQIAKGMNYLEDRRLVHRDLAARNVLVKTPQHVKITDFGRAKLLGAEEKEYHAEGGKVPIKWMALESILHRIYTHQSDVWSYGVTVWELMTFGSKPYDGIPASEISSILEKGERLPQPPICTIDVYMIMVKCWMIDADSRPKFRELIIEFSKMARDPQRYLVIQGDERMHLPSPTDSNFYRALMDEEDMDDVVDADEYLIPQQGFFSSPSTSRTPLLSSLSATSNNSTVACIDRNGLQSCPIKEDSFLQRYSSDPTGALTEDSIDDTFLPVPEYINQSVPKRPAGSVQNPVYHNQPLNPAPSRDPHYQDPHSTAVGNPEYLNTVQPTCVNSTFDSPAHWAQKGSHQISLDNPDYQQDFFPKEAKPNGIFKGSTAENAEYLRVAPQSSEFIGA
T1 sequence (P00533 whole entry): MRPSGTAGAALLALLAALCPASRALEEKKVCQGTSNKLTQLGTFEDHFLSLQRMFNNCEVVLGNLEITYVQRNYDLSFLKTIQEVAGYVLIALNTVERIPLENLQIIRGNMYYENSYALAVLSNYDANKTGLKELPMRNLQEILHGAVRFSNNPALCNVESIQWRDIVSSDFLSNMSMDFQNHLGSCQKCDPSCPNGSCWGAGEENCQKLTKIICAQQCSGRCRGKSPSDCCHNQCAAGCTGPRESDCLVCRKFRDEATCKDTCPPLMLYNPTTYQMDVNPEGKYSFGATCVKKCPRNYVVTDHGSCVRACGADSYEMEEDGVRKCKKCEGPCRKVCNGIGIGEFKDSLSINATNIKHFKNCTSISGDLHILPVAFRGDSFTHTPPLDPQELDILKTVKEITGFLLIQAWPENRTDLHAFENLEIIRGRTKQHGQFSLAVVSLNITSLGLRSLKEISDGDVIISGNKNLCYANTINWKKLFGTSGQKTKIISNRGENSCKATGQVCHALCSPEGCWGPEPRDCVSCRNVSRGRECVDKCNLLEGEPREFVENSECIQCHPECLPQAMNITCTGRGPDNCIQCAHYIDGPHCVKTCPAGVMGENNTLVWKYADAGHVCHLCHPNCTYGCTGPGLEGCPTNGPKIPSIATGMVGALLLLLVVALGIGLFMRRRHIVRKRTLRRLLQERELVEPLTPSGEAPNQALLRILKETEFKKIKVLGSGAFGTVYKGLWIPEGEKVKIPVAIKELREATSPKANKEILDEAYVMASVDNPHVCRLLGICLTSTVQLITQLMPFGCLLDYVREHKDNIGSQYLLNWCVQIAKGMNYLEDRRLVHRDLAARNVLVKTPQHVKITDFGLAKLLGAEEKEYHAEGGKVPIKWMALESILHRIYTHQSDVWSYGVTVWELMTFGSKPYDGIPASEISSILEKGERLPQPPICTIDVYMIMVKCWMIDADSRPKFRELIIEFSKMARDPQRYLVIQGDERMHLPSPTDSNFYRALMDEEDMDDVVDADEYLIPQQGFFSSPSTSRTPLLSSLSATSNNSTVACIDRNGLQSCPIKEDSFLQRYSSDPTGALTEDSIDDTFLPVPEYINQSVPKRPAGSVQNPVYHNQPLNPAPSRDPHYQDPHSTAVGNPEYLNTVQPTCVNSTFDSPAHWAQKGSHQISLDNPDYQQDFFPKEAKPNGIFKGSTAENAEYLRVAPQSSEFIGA
T2 sequence (O60674 whole entry): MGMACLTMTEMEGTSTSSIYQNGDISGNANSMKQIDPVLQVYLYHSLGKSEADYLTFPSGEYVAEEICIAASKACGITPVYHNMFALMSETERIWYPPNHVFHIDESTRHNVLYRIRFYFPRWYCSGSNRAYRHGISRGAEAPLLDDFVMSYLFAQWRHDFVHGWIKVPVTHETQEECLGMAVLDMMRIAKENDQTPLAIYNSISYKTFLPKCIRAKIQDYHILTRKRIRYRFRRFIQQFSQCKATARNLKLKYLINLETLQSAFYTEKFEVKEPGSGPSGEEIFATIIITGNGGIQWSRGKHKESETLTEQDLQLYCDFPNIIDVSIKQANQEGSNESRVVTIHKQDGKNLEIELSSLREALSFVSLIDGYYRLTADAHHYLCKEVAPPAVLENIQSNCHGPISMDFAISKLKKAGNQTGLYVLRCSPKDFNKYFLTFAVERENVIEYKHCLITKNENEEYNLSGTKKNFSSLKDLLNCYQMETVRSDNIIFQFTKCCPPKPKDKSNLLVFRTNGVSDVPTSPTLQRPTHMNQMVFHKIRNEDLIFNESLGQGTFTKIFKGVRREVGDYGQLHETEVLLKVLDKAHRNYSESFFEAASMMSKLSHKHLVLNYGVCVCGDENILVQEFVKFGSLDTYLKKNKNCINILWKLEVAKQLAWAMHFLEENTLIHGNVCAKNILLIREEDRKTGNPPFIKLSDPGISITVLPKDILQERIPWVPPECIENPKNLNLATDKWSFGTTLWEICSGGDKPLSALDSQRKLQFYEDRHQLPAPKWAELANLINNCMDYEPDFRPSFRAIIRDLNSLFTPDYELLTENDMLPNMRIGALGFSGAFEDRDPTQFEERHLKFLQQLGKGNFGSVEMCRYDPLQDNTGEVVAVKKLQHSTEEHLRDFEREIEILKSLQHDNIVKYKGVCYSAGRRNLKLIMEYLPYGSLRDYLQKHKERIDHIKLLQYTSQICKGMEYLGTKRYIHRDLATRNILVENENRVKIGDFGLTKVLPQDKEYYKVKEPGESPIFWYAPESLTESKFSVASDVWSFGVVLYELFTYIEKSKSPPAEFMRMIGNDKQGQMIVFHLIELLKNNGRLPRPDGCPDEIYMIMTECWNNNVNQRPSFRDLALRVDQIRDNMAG
T3 sequence (P35916 whole entry): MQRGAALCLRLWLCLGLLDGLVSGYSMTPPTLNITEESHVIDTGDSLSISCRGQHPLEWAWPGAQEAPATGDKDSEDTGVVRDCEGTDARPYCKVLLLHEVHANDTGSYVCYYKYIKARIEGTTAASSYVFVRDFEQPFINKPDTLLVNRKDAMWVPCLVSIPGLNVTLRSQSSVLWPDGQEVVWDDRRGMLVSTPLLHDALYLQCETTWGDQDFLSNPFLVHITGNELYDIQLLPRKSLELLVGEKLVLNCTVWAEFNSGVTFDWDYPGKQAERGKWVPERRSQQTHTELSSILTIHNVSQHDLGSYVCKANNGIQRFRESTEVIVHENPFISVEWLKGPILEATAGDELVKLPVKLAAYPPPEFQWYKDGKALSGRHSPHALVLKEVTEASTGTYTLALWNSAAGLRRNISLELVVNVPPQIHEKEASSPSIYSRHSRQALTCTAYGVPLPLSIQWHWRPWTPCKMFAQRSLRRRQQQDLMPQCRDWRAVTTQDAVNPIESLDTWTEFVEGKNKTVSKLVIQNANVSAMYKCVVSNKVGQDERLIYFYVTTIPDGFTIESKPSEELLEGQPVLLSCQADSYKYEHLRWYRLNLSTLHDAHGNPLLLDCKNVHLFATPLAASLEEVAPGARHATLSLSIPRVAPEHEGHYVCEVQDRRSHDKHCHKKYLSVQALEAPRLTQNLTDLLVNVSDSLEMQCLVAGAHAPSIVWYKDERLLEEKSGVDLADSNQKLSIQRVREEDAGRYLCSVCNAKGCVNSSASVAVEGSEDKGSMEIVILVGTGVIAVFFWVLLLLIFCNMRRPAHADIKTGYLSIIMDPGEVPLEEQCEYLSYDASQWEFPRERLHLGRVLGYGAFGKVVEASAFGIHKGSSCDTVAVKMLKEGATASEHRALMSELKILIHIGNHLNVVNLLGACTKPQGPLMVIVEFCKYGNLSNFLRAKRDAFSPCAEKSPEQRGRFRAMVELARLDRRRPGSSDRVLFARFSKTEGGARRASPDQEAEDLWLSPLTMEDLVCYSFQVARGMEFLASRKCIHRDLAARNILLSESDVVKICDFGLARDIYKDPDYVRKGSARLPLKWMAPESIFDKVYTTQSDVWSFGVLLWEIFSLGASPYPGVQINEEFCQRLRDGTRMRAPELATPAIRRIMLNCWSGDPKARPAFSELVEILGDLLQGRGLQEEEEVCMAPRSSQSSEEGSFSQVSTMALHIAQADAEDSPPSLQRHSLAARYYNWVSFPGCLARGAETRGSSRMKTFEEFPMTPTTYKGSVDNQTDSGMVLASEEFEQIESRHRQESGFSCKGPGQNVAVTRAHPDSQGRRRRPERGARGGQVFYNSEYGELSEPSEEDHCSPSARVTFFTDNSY

Work on Cc1ccc(OCCOCCn2ccnc2[N+](=O)[O-])cc1Nc1nccc(-c2cn(C)c3ccccc23)n1 yielded an IC50 [1] of 1310 nM.
Cn1cc(-c2ccnc(Nc3ccc(Cl)c(OCCOCCn4ccnc4[N+](=O)[O-])c3)n2)c2ccccc21 gave an IC50 [1] of 2670 nM.
Compound Cn1cc(-c2ccnc(Nc3ccc(OCCCCn4ccnc4[N+](=O)[O-])cc3)n2)c2ccccc21 has an IC50 [1] of 1180 nM.
Cn1cc(-c2ccnc(Nc3ccc(OCCOCCn4ccnc4[N+](=O)[O-])c(F)c3)n2)c2ccccc21 showed a Ratio IC50 [2] greater than 13.8, an IC50 [3] greater than 10000 nM and an IC50 [1] of 722 nM.
Compound Cn1cc(-c2ccnc(Nc3cccc(OCCOCCn4ccnc4[N+](=O)[O-])c3)n2)c2ccccc21 has a Ratio IC50 [2] of 9.05, an IC50 [3] of 4000 nM and an IC50 [1] of 442 nM.
COc1ccc(Nc2nccc(-c3cn(C)c4ccccc34)n2)cc1OCCOCCn1ccnc1[N+](=O)[O-] gave an IC50 [4] of 30.9 nM, an IC50 [5] of 227 nM and an inhibition [6] of 84.7%. The inhibition [7] was 27.4%, the inhibition [8] was 88.2% and the Drug metabolism [9] was “Metabolite_Detected”. For the same compound, the inhibition [10] was 43.2%, the inhibition [11] was 34.8% and the inhibition [12] was 26.6%. It also gave an inhibition (Homo sapiens) of 23.9%, an inhibition [13] of 17% and an inhibition [14] of 17.4%. The inhibition [15] was 9%, the inhibition [16] was -7.07% and the inhibition [17] was 36.5%. The Drug metabolism [18] was “Metabolite_Detected”, the IC50 [19] was 42.5 nM and the Drug metabolism [20] was “Metabolite_Detected”. The inhibition [21] was 50.9%, the inhibition [22] was 44.3% and the Drug metabolism [23] was “Metabolite_Notdetected”. The inhibition [24] was 79.2%, the “Ratio IC50” value [25] was 4.75 and the inhibition [26] was 27.9%. The inhibition [27] was 50%, the “Ratio IC50” value [28] was 5.63 and the inhibition [29] was -0.41%. The Drug metabolism [30] was “Metabolite_Detected”, the inhibition [31] was 65.4% and the inhibition [32] was 85.7%. For the same compound, the IC50 [33] was 107 nM, the inhibition [34] was 8.02% and the inhibition [35] was 90.5%. For the same compound, the inhibition [36] was 8%, the IC50 (NCI-H1975 [37]) was 26.2 nM and the IC50 [3] was 1570 nM. It also gave an IC50 (HCC827 [38]) of 5.26 nM, an inhibition [39] of 32.4% and an inhibition [40] of 11.5%. For the same compound, the IC50 (NCI-H1975 [41]) was 4.66 nM, the Drug metabolism [42] was “Metabolite_Detected” and the inhibition [43] was 42.7%. It also gave an IC50 (HCC827 [44]) of 25 nM, an inhibition [45] of 11.8% and an inhibition [46] of 38.1%. For the same compound, the inhibition [47] was 62.7%, the Drug metabolism [48] was “Metabolite_Notdetected” and the IC50 [49] was 108 nM. For the same compound, the IC50 [1] was 177 nM and the inhibition [50] was 29%.
Cn1cc(-c2ccnc(Nc3cccc(OCCCCn4ccnc4[N+](=O)[O-])c3)n2)c2ccccc21 showed a Ratio IC50 [2] of 15.7, an IC50 [3] of 3570 nM and an IC50 [1] of 227 nM.
Work on Cc1cc(Nc2nccc(-c3cn(C)c4ccccc34)n2)ccc1OCCOCCn1ccnc1[N+](=O)[O-] yielded a Ratio IC50 [2] of 20.2, an IC50 [3] of 9200 nM and an IC50 [1] of 456 nM.
